Values after ≈ are worked out from the molar mass of the structure shown.
How the values were obtained:
Assay type in all cases: cell-based
[1] = tested on: Staphylococcus aureus FDA 209PJc-1; assay: Antibacterial activity, agar-dilution MIC, organism No. 1; settings: Staphylococcus aureus, FDA209PJC1; Organism No. 1, bouillon-agar; read-out: Minimum Inhibitory Concentration
Procedure, shortened: (§1)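 An agar-dilution procedure on bouillon-agar medium was applied, and each MIC was recorded as micrograms of specimen per ml of medium.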

[2] = tested on: Staphylococcus aureus Terajima; assay: Antibacterial activity, agar-dilution MIC, organism No. 2; settings: Staphylococcus aureus; Organism No. 2, bouillon-agar; read-out: Minimum Inhibitory Concentration
Procedure, shortened: as §1

[3] = tested on: Staphylococcus aureus MS 353; assay: Antibacterial activity, agar-dilution MIC, organism No. 3; settings: Staphylococcus aureus, MS353; Organism No. 3, bouillon-agar; read-out: Minimum Inhibitory Concentration
Procedure, shortened: as §1

[4] = tested on: Streptococcus pyogenes Cook; assay: Antibacterial activity, agar-dilution MIC, organism No. 4; settings: Streptococcus pyogenes; Organism No. 4, bouillon-agar; read-out: Minimum Inhibitory Concentration
Procedure, shortened: as §1

[5] = tested on: Escherichia coli NIHJ-JC-2; assay: Antibacterial activity, agar-dilution MIC, organism No. 5; settings: Escherichia coli, NIHJJC2; Organism No. 5, bouillon-agar; read-out: Minimum Inhibitory Concentration
Procedure, shortened: as §1

[6] = tested on: Escherichia coli K12 C600 IAM 1264; assay: Antibacterial activity, agar-dilution MIC, organism No. 6; settings: Escherichia coli, IAM1264; Organism No. 6, bouillon-agar; read-out: Minimum Inhibitory Concentration
Procedure, shortened: as §1

[7] = tested on: Klebsiella pneumoniae PCI-602; assay: Antibacterial activity, agar-dilution MIC, organism No. 7; settings: Klebsiella pneumoniae, PCI602; Organism No. 7, bouillon-agar; read-out: Minimum Inhibitory Concentration
Procedure, shortened: as §1

[8] = tested on: Salmonella typhimurium IID 971; assay: Antibacterial activity, agar-dilution MIC, organism No. 8; settings: Salmonella enterica; Organism No. 8, bouillon-agar; read-out: Minimum Inhibitory Concentration
Procedure, shortened: as §1

Salmonella typhi 901 = assay: Antibacterial activity, agar-dilution MIC, organism No. 9; settings: Salmonella enterica, TYPHI, read-out: Minimum Inhibitory Concentration
Procedure, shortened: as §1

[9] = tested on: Salmonella paratyphi-A 1015; assay: Antibacterial activity, agar-dilution MIC, organism No. 10; settings: Salmonella enterica, PARATYPHI, read-out: Minimum Inhibitory Concentration
Procedure, shortened: as §1

[10] = tested on: Salmonella shottmuelleri 8006; assay: Antibacterial activity, agar-dilution MIC, organism No. 11; settings: Salmonella, 8006; Organism No. 11, bouillon-agar; read-out: Minimum Inhibitory Concentration
Procedure, shortened: as §1

[11] = tested on: Salmonella enteritidis G 14; assay: Antibacterial activity, agar-dilution MIC, organism No. 12; settings: Salmonella enterica, ENTERITIDIS; Organism No. 12, bouillon-agar; read-out: Minimum Inhibitory Concentration
Procedure, shortened: as §1

[12] = tested on: Serratia marcescens IAM 1184; assay: Antibacterial activity, agar-dilution MIC, organism No. 13; settings: Serratia marcescens, IAM1184; Organism No. 13, bouillon-agar; read-out: Minimum Inhibitory Concentration
Procedure, shortened: as §1

[13] = tested on: Bacillus subtilis ATCC 6633; assay: Antibacterial activity, agar-dilution MIC, organism No. 14; settings: Bacillus subtilis, ATCC6633; Organism No. 14, bouillon-agar; read-out: Minimum Inhibitory Concentration
Procedure, shortened: as §1

[14] = tested on: Pseudomonas aeruginosa IFO 3445; assay: Antibacterial activity, agar-dilution MIC, organism No. 15; settings: Pseudomonas aeruginosa, IFO3445; Organism No. 15, bouillon-agar; read-out: Minimum Inhibitory Concentration
Procedure, shortened: as §1

[15] = tested on: Pseudomonas aeruginosa NCTC 10490; assay: Antibacterial activity, agar-dilution MIC, organism No. 16; settings: Pseudomonas aeruginosa, NCTC10490; Organism No. 16, bouillon-agar; read-out: Minimum Inhibitory Concentration
Procedure, shortened: as §1

[16] = tested on: Pseudomonas aeruginosa PAO 1; assay: Antibacterial activity, agar-dilution MIC, organism No. 17; settings: Pseudomonas aeruginosa, PAO1; Organism No. 17, bouillon-agar; read-out: Minimum Inhibitory Concentration
Procedure, shortened: as §1

[17] = tested on: Proteus morganii IFO 3848; assay: Antibacterial activity, agar-dilution MIC, organism No. 18; settings: Morganella morganii, IFO3848; Organism No. 18, bouillon-agar; read-out: Minimum Inhibitory Concentration
Procedure, shortened: as §1

[18] = tested on: Proteus mirabilis IFO 3849; assay: Antibacterial activity, agar-dilution MIC, organism No. 19; settings: Proteus mirabilis, IFO3849; Organism No. 19, bouillon-agar; read-out: Minimum Inhibitory Concentration
Procedure, shortened: as §1

Proteus vulgaris OX-19 = assay: Antibacterial activity, agar-dilution MIC, organism No. 20; settings: Proteus vulgaris, OX19; Organism No. 20, bouillon-agar; read-out: Minimum Inhibitory Concentration
Procedure, shortened: as §1

Proteus vulgaris HX-19 = assay: Antibacterial activity, agar-dilution MIC, organism No. 21; settings: Proteus vulgaris, HX19; Organism No. 21, bouillon-agar; read-out: Minimum Inhibitory Concentration
Procedure, shortened: as §1

[19] = tested on: Proteus rettgeri IFO 3850; assay: Antibacterial activity, agar-dilution MIC, organism No. 22; settings: Providencia rettgeri, IFO3850; Organism No. 22, bouillon-agar; read-out: Minimum Inhibitory Concentration
Procedure, shortened: as §1

[20] = tested on: Enterobacter aerogenes ATCC 13048; assay: Antibacterial activity, agar-dilution MIC, organism No. 23; settings: Klebsiella aerogenes, ATCC13048; Organism No. 23, bouillon-agar; read-out: Minimum Inhibitory Concentration
Procedure, shortened: as §1

Enterobacter cloacae 963 = assay: Antibacterial activity, agar-dilution MIC, organism No. 24; settings: Enterobacter cloacae, 963; Organism No. 24, bouillon-agar; read-out: Minimum Inhibitory Concentration
Procedure, shortened: as §1

[21] = tested on: Micrococcus luteus ATCC 9341; assay: Antibacterial activity, agar-dilution MIC, organism No. 25; settings: Micrococcus luteus, ATCC9341; Organism No. 25, bouillon-agar; read-out: Minimum Inhibitory Concentration
Procedure, shortened: as §1

[22] = tested on: Streptococcus pyogenes IFO 3340; assay: Antibacterial activity, agar-dilution MIC, organism No. 26; settings: Streptococcus pyogenes, IFO3340; Organism No. 26, bouillon-agar; read-out: Minimum Inhibitory Concentration
Procedure, shortened: as §1

[23] = tested on: Streptococcus faecium IFO 3826; assay: Antibacterial activity, agar-dilution MIC, organism No. 27; settings: Enterococcus faecium, IFO3826; Organism No. 27, bouillon-agar; read-out: Minimum Inhibitory Concentration
Procedure, shortened: as §1

[24] = tested on: Mycoplasma pneumoniae IID817; assay: Antimycoplasmal activity, MIC by phenol red colour change, organism No. 28; settings: Mycoplasma, IID817; Organism No. 28, PPLO broth + 1% glucose, 37° C.; read-out: Minimum Inhibitory Concentration (MIC)
Experimental: Mycoplasma pneumoniae IID817 was used as the test microorganism in a culture medium prepared by adding 1% of glucose to "PPLO broth (manufactured by Difco Co.) liquid culture medium" at 37° C. with phenol red as an indicator, thereby culturing the test microorganism.

[25] = tested on: Candida albicans IAM 4905; assay: Antifungal activity, agar-dilution MIC, organism No. 29; settings: Candida albicans, IAM4905; Organism No. 29, bouillon-agar; read-out: Minimum Inhibitory Concentration
Procedure, shortened: as §1

[26] = tested on: Aspergillus niger IFO 6342; assay: Antifungal activity, agar-dilution MIC, organism No. 30; settings: Aspergillus niger, IFO6342; Organism No. 30, bouillon-agar; read-out: Minimum Inhibitory Concentration
Procedure, shortened: as §1

[C-]#[N+]C12CC3(/C=C/C(=O)OCC(=O)c4ccc(Br)cc4)OC3C1O2 (stereo not drawn) [Compound No. 4, p-bromophenacylβ-substituted acrylate]
MIC [1]: 0.4 µg/mL (≈ 1.03 µM)
MIC [2]: 0.78 µg/mL (≈ 2 µM)
MIC [3]: 1.56 µg/mL (≈ 4 µM)
MIC [4]: 12.5 µg/mL (≈ 32 µM)
MIC [5]: 6.25 µg/mL (≈ 16 µM)
MIC [6]: < 0.05 µg/mL
MIC [7]: 6.25 µg/mL (≈ 16 µM)
MIC [8]: 6.25 µg/mL (≈ 16 µM)
MIC (Salmonella typhi 901): 3.13 µg/mL (≈ 8.02 µM)
MIC [9]: < 0.05 µg/mL
MIC [10]: < 0.05 µg/mL
MIC [11]: 3.13 µg/mL (≈ 8.02 µM)
MIC [12]: > 100 µg/mL
MIC [13]: 12.5 µg/mL (≈ 32 µM)
MIC [14]: > 100 µg/mL
MIC [15]: > 100 µg/mL
MIC [16]: > 100 µg/mL
MIC [17]: 100 µg/mL (≈ 256 µM)
MIC [18]: > 200 µg/mL
MIC (Proteus vulgaris OX-19): 0.39 µg/mL (≈ 1 µM)
MIC (Proteus vulgaris HX-19): 0.39 µg/mL (≈ 1 µM)
MIC [19]: 100 µg/mL (≈ 256 µM)
MIC [20]: 100 µg/mL (≈ 256 µM)
MIC (Enterobacter cloacae 963): 0.2 µg/mL (≈ 0.513 µM)
MIC [21]: < 0.05 µg/mL
MIC [22]: 6.25 µg/mL (≈ 16 µM)
MIC [23]: 12.5 µg/mL (≈ 32 µM)
MIC [24]: < 0.05 µg/mL
MIC [25]: 1.56 µg/mL (≈ 4 µM)
MIC [26]: 6.25 µg/mL (≈ 16 µM)

[C-]#[N+]C12CC3(/C=C/C(=O)ON4C(=O)CCC4=O)OC3C1O2 (stereo not drawn) [Compound No. 9]
MIC [1]: 50 µg/mL (≈ 172 µM)
MIC [2]: 50 µg/mL (≈ 172 µM)
MIC [3]: 50 µg/mL (≈ 172 µM)
MIC [4]: 100 µg/mL (≈ 345 µM)
MIC [5]: 50 µg/mL (≈ 172 µM)
MIC [6]: 50 µg/mL (≈ 172 µM)
MIC [7]: 200 µg/mL (≈ 689 µM)
MIC [8]: 50 µg/mL (≈ 172 µM)
MIC (Salmonella typhi 901): 50 µg/mL (≈ 172 µM)
MIC [9]: 50 µg/mL (≈ 172 µM)
MIC [10]: 50 µg/mL (≈ 172 µM)
MIC [11]: 50 µg/mL (≈ 172 µM)
MIC [12]: 200 µg/mL (≈ 689 µM)
MIC [13]: 200 µg/mL (≈ 689 µM)
MIC [14]: > 200 µg/mL
MIC [15]: > 200 µg/mL
MIC [16]: > 200 µg/mL
MIC [17]: 50 µg/mL (≈ 172 µM)
MIC [18]: 200 µg/mL (≈ 689 µM)
MIC (Proteus vulgaris OX-19): 200 µg/mL (≈ 689 µM)
MIC (Proteus vulgaris HX-19): 25 µg/mL (≈ 86.1 µM)
MIC [19]: > 200 µg/mL
MIC [20]: > 200 µg/mL
MIC (Enterobacter cloacae 963): > 200 µg/mL
MIC [21]: 25 µg/mL (≈ 86.1 µM)
MIC [22]: 100 µg/mL (≈ 345 µM)
MIC [23]: 50 µg/mL (≈ 172 µM)
MIC [24]: 6.25 µg/mL
MIC [25]: > 100 µg/mL
MIC [26]: > 100 µg/mL

[C-]#[N+]C12CC3(/C=C/C(=O)OCc4cc([N+](=O)[O-])ccc4OC)OC3C1O2 (stereo not drawn) [Compound No. 16]
MIC [1]: 6.25 µg/mL (≈ 17.4 µM)
MIC [2]: 6.25 µg/mL (≈ 17.4 µM)
MIC [3]: 6.25 µg/mL (≈ 17.4 µM)
MIC [4]: 200 µg/mL (≈ 558 µM)
MIC [5]: 200 µg/mL (≈ 558 µM)
MIC [6]: 200 µg/mL (≈ 558 µM)
MIC [7]: 50 µg/mL (≈ 140 µM)
MIC [8]: > 200 µg/mL
MIC (Salmonella typhi 901): 50 µg/mL (≈ 140 µM)
MIC [9]: 50 µg/mL (≈ 140 µM)
MIC [10]: 50 µg/mL (≈ 140 µM)
MIC [11]: > 200 µg/mL
MIC [12]: 100 µg/mL (≈ 279 µM)
MIC [13]: 25 µg/mL (≈ 69.8 µM)
MIC [14]: > 200 µg/mL
MIC [15]: > 200 µg/mL
MIC [16]: > 200 µg/mL
MIC [17]: 12.5 µg/mL (≈ 34.9 µM)
MIC [18]: > 200 µg/mL
MIC (Proteus vulgaris OX-19): 50 µg/mL (≈ 140 µM)
MIC (Proteus vulgaris HX-19): 3.13 µg/mL (≈ 8.74 µM)
MIC [19]: 100 µg/mL (≈ 279 µM)
MIC [20]: > 200 µg/mL
MIC (Enterobacter cloacae 963): > 200 µg/mL
MIC [21]: 0.1 µg/mL (≈ 0.279 µM)
MIC [22]: 200 µg/mL (≈ 558 µM)
MIC [23]: 6.25 µg/mL (≈ 17.4 µM)
MIC [24]: 6.25 µg/mL
MIC [25]: 3.13 µg/mL (≈ 8.74 µM)
MIC [26]: 6.25 µg/mL (≈ 17.4 µM)

From patent US4684664A, “Derivatives of β-(4-isocyano-1,2,3,4-diepoxycyclopentyl) acrylic acid” (Kureha Kagaku Kogyo Kabushiki Kaisha, priority 1984, dated 1987)
